System: allergic contact dermatitis (oxazolone, elicitation phase)
Assay: Allergic contact dermatitis (ACD), oxazolone
Type: in vivo
Settings: female NMRI mice, 24 h after challenge
Source text: ii) Allergic Contact Dermatitis (ACD)
Groups of 8 female NMRI mice are sensitized on the shaved abdomen with 50 —l of oxazolone (Sigma, 2% in acetone) and challenged with 10 —l of 0.2 or 2.0% oxazolone on the inner surface of the right ear 7 days later. The low concentration of oxazolone for induction of the elicitation phase is used for testing compounds on […] whereas the high concentration is applied for […] testing. The unchallenged left ears serve as normal controls and dermatitis is evaluated from the individual differences in pinnal weight, which is taken as a measure of increase in inflammatory swelling 24 h after the challenge. Dermatitis is evaluated in test- and for comparison in control groups. The test groups are treated with the test compounds either orally (twice, 2 h and immediately before challenge), subcutaneously (immediately before challenge) or topically (30 min after challenge at the site of elicitation of the ACD); the controls are treated similarly with the vehicles alone. […] The data of the test-and the vehicle-treated control groups are statistically analysed by ANOVA followed by Dunnet T-test (normal distribution or data) or by H and U-test, respectively. […]

C[C@@H]1CCN([C@H](Cc2cccc3ccccc23)C(N)=O)C(=O)[C@H](c2ccccc2)N1C(=O)Cc1ccc2ncccc2c1 [Example 3, (R)-2-[(3S,5R)-5Methyl-2-oxo-3-phenyl-4-(quinolin-6-yl-acetyl)-[1,4]diazepan-1-yl]-3-(naphthalen-1-yl)-propionamide]
inhibiting effect in allergic contact dermatitis (pinnal weight) (applied topically at a dose of 10 mM): 50%
inhibiting effect in allergic contact dermatitis (pinnal weight) (p.o. at a dose of 2×3 mg/kg): 40%

— US6399599B1, “Substituted 2-oxo-1,4-diazacycloalkanes” (Novartis AG, priority 1999, dated 2002)
